Patent publication US9289437B2, “Method for preparation of a controlled release system” (Cristal Delivery B.V., priority 2008, dated 2016)

Conditions: 6 hours after intravenous administration, B16F10 tumor-bearing mice

C[C@@H]1C[C@H]2[C@@H]3CCC4=CC(=O)C=C[C@]4(C)[C@@]3(F)[C@@H](O)C[C@]2(C)[C@@]1(O)C(=O)CO [free dexamethasone, dexamethasone]
fraction still residing in the blood stream: 0.3%
